{"source": "patent US7767659B2", "about": "“Synthesis of naturally occurring ecteinascidins and related compounds” (Pharma Mar, S.A., priority 2002, dated 2010)", "key": {"[1]": {"test_system": "LoVo-Dox", "experiment": "Inhibition of cells growth by colorimetric assay (SRB)", "settings": "Homo sapiens, 48 h; for GI50: read-out: LOVO-DOX GI50; for CC50: read-out: LOVO-DOX LC50; for IC (TGI): read-out: LOVO-DOX TGI", "method_in_brief": "(§1)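 Colorimetric SRB read (490 nm) on triplicate wells after 48 h at 37 °C, 5% CO2. Dose range 10 to 10^−8 μg/ml; 5×10^3 cells/well pre-attached 18 h.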"}, "[2]": {"test_system": "IGROV-1", "experiment": "Inhibition of cells growth by colorimetric assay (SRB)", "settings": "Homo sapiens, IGROV-1, 48 h; for GI50: read-out: IGROV GI50; for CC50: read-out: IGROV LC50; for IC (TGI): read-out: IGROV TGI", "method_in_brief": "as §1"}, "[3]": {"test_system": "K-562", "experiment": "Inhibition of cells growth by colorimetric assay (SRB)", "settings": "Homo sapiens, K562, 48 h; for GI50: read-out: K562 GI50; for CC50: read-out: K562 LC50; for IC (TGI): read-out: K562 TGI", "method_in_brief": "as §1"}, "[4]": {"test_system": "PANC-1", "experiment": "Inhibition of cells growth by colorimetric assay (SRB)", "settings": "Homo sapiens, PANC-1, 48 h; for GI50: read-out: PANC-1 GI50; for CC50: read-out: PANC-1 LC50; for IC (TGI): read-out: PANC-1 TGI", "method_in_brief": "as §1"}, "[5]": {"test_system": "SK-MEL-28", "experiment": "Inhibition of cells growth by colorimetric assay (SRB)", "settings": "Homo sapiens, SK-MEL-28, 48 h; for GI50: read-out: MEL-28 GI50; for CC50: read-out: MEL-28 LC50; for IC (TGI): read-out: MEL-28 TGI", "method_in_brief": "as §1"}, "[6]": {"test_system": "DU-145", "experiment": "Inhibition of cells growth by colorimetric assay (SRB)", "settings": "Homo sapiens, DU-145, 48 h; for GI50: read-out: DU145 GI50; for CC50: read-out: DU145 LC50; for IC (TGI): read-out: DU145 TGI", "method_in_brief": "as §1"}, "[7]": {"test_system": "SK-BR-3", "experiment": "Inhibition of cells growth by colorimetric assay (SRB)", "settings": "Homo sapiens, SK-BR-3, 48 h; for GI50: read-out: SK-BR3 GI50; for CC50: read-out: SK-BR3 LC50; for IC (TGI): read-out: SK-BR3 TGI", "method_in_brief": "as §1"}, "[8]": {"test_system": "HeLa-APL", "experiment": "Inhibition of cells growth by colorimetric assay (SRB)", "settings": "Homo sapiens, 48 h; for GI50: read-out: HELA-APL GI50; for CC50: read-out: HELA-APL LC50; for IC (TGI): read-out: HELA-APL TGI", "method_in_brief": "as §1"}, "[9]": {"test_system": "IGROV-ET", "experiment": "Inhibition of cells growth by colorimetric assay (SRB)", "settings": "Homo sapiens, 48 h; for GI50: read-out: IGROV-ET GI50; for CC50: read-out: IGROV-ET LC50; for IC (TGI): read-out: IGROV-ET TGI", "method_in_brief": "as §1"}, "[10]": {"test_system": "LNCaP", "experiment": "Inhibition of cells growth by colorimetric assay (SRB)", "settings": "Homo sapiens, LNCaP, 48 h; for GI50: read-out: LNCAP GI50; for CC50: read-out: LNCAP LC50; for IC (TGI): read-out: LNCAP TGI", "method_in_brief": "as §1"}, "[11]": {"test_system": "HeLa", "experiment": "Inhibition of cells growth by colorimetric assay (SRB)", "settings": "Homo sapiens, HeLa, 48 h; for GI50: read-out: HELA GI50; for CC50: read-out: HELA LC50; for IC (TGI): read-out: HELA TGI", "method_in_brief": "as §1"}, "[12]": {"test_system": "A-549", "experiment": "cells", "settings": "Homo sapiens, A549, 48 h; for GI50: read-out: A549 GI50; for CC50: read-out: A549 LC50; for IC (TGI): read-out: A549 TGI", "method_in_brief": "as §1"}, "[13]": {"test_system": "LoVo", "experiment": "cells", "settings": "Homo sapiens, LoVo, 48 h; for GI50: read-out: LOVO GI50; for CC50: read-out: LOVO LC50; for IC (TGI): read-out: LOVO TGI", "method_in_brief": "as §1"}, "[14]": {"test_system": "HT-29", "experiment": "cells", "settings": "Homo sapiens, HT-29, 48 h; for GI50: read-out: HT29 GI50; for CC50: read-out: HT29 LC50; for IC (TGI): read-out: HT29 TGI", "method_in_brief": "as §1"}}}
{"smiles": "COc1c(C)cc2c(c1O)[C@H]1N[C@@H](C2)[C@H](C#N)N2C1[C@@H]1SC[C@]3(NCCc4c3[nH]c3ccc(C)cc43)C(=O)OC[C@H]2c2c3c(c(C)c(OC(C)=O)c21)OCO3", "note": "(stereo partly drawn) [compound 62]", "values": [{"measurement": "GI50", "setting": "[1]", "value": 136, "unit": "nM"}, {"measurement": "CC50", "setting": "[1]", "value": 13100, "unit": "nM"}, {"measurement": "IC (TGI)", "setting": "[1]", "value": 558, "unit": "nM"}, {"measurement": "GI50", "setting": "[2]", "value": 2.59, "unit": "nM"}, {"measurement": "CC50", "setting": "[2]", "value": 3900, "unit": "nM"}, {"measurement": "IC (TGI)", "setting": "[2]", "value": 6.55, "unit": "nM"}, {"measurement": "GI50", "setting": "[3]", "value": 1.94, "unit": "nM"}, {"measurement": "CC50", "setting": "[3]", "value": 6020, "unit": "nM"}, {"measurement": "IC (TGI)", "setting": "[3]", "value": 11, "unit": "nM"}, {"measurement": "GI50", "setting": "[4]", "value": 3.86, "unit": "nM"}, {"measurement": "CC50", "setting": "[4]", "value": 4750, "unit": "nM"}, {"measurement": "IC (TGI)", "setting": "[4]", "value": 13.5, "unit": "nM"}, {"measurement": "GI50", "setting": "[5]", "value": 2.46, "unit": "nM"}, {"measurement": "CC50", "setting": "[5]", "value": 9.78, "unit": "nM"}, {"measurement": "IC (TGI)", "setting": "[5]", "value": 4.92, "unit": "nM"}, {"measurement": "GI50", "setting": "[6]", "value": 3.3, "unit": "nM"}, {"measurement": "CC50", "setting": "[6]", "value": 3590, "unit": "nM"}, {"measurement": "IC (TGI)", "setting": "[6]", "value": 10.4, "unit": "nM"}, {"measurement": "GI50", "setting": "[7]", "value": 1.01, "unit": "nM"}, {"measurement": "CC50", "setting": "[7]", "value": 103, "unit": "nM"}, {"measurement": "IC (TGI)", "setting": "[7]", "value": 4.74, "unit": "nM"}, {"measurement": "GI50", "setting": "[8]", "value": 2.3, "unit": "nM"}, {"measurement": "CC50", "setting": "[8]", "value": 10.3, "unit": "nM"}, {"measurement": "IC (TGI)", "setting": "[8]", "value": 4.88, "unit": "nM"}, {"measurement": "GI50", "setting": "[9]", "value": 26.6, "unit": "nM"}, {"measurement": "CC50", "setting": "[9]", "value": 2920, "unit": "nM"}, {"measurement": "IC (TGI)", "setting": "[9]", "value": 69.5, "unit": "nM"}, {"measurement": "GI50", "setting": "[10]", "value": 3.01, "unit": "nM"}, {"measurement": "CC50", "setting": "[10]", "value": 8.4, "unit": "nM"}, {"measurement": "IC (TGI)", "setting": "[10]", "value": 5.03, "unit": "nM"}, {"measurement": "GI50", "setting": "[11]", "value": 2.37, "unit": "nM"}, {"measurement": "CC50", "setting": "[11]", "value": 11, "unit": "nM"}, {"measurement": "IC (TGI)", "setting": "[11]", "value": 5.11, "unit": "nM"}, {"measurement": "GI50", "setting": "[12]", "value": 4.56, "unit": "nM"}, {"measurement": "CC50", "setting": "[12]", "value": 334, "unit": "nM"}, {"measurement": "IC (TGI)", "setting": "[12]", "value": 16.5, "unit": "nM"}, {"measurement": "GI50", "setting": "[13]", "value": 5.03, "unit": "nM"}, {"measurement": "CC50", "setting": "[13]", "value": 1540, "unit": "nM"}, {"measurement": "IC (TGI)", "setting": "[13]", "value": 17.9, "unit": "nM"}, {"measurement": "GI50", "setting": "[14]", "value": 4.03, "unit": "nM"}, {"measurement": "CC50", "setting": "[14]", "value": 12500, "unit": "nM"}, {"measurement": "IC (TGI)", "setting": "[14]", "value": 283, "unit": "nM"}]}
{"smiles": "C=CCN1[C@@H]2c3c(cc(C)c(OC)c3O)C[C@H]1[C@H](C#N)N1C2[C@@H]2SC[C@]3(NCCc4c3[nH]c3ccc(C)cc43)C(=O)OC[C@H]1c1c3c(c(C)c(OC(C)=O)c12)OCO3", "note": "(stereo partly drawn) [compound 58]", "values": [{"measurement": "GI50", "setting": "[1]", "value": 483, "unit": "nM"}, {"measurement": "CC50", "setting": "[1]", "value": 12400, "unit": "nM"}, {"measurement": "IC (TGI)", "setting": "[1]", "value": 2260, "unit": "nM"}, {"measurement": "GI50", "setting": "[2]", "value": 93.9, "unit": "nM"}, {"measurement": "CC50", "setting": "[2]", "value": 1040, "unit": "nM"}, {"measurement": "IC (TGI)", "setting": "[2]", "value": 305, "unit": "nM"}, {"measurement": "GI50", "setting": "[3]", "value": 26.4, "unit": "nM"}, {"measurement": "CC50", "setting": "[3]", "value": 12400, "unit": "nM"}, {"measurement": "IC (TGI)", "setting": "[3]", "value": 94.2, "unit": "nM"}, {"measurement": "GI50", "setting": "[4]", "value": 379, "unit": "nM"}, {"measurement": "CC50", "setting": "[4]", "value": 12400, "unit": "nM"}, {"measurement": "IC (TGI)", "setting": "[4]", "value": 1270, "unit": "nM"}, {"measurement": "GI50", "setting": "[5]", "value": 241, "unit": "nM"}, {"measurement": "CC50", "setting": "[5]", "value": 969, "unit": "nM"}, {"measurement": "IC (TGI)", "setting": "[5]", "value": 469, "unit": "nM"}, {"measurement": "GI50", "setting": "[6]", "value": 46.8, "unit": "nM"}, {"measurement": "CC50", "setting": "[6]", "value": 12400, "unit": "nM"}, {"measurement": "IC (TGI)", "setting": "[6]", "value": 88.8, "unit": "nM"}, {"measurement": "GI50", "setting": "[7]", "value": 20.9, "unit": "nM"}, {"measurement": "CC50", "setting": "[7]", "value": 2550, "unit": "nM"}, {"measurement": "IC (TGI)", "setting": "[7]", "value": 75, "unit": "nM"}, {"measurement": "GI50", "setting": "[8]", "value": 61, "unit": "nM"}, {"measurement": "CC50", "setting": "[8]", "value": 1160, "unit": "nM"}, {"measurement": "IC (TGI)", "setting": "[8]", "value": 190, "unit": "nM"}, {"measurement": "GI50", "setting": "[9]", "value": 188, "unit": "nM"}, {"measurement": "CC50", "setting": "[9]", "value": 949, "unit": "nM"}, {"measurement": "IC (TGI)", "setting": "[9]", "value": 422, "unit": "nM"}, {"measurement": "GI50", "setting": "[10]", "value": 29.9, "unit": "nM"}, {"measurement": "CC50", "setting": "[10]", "value": 240, "unit": "nM"}, {"measurement": "IC (TGI)", "setting": "[10]", "value": 71.6, "unit": "nM"}, {"measurement": "GI50", "setting": "[11]", "value": 39.4, "unit": "nM"}, {"measurement": "CC50", "setting": "[11]", "value": 165, "unit": "nM"}, {"measurement": "IC (TGI)", "setting": "[11]", "value": 70.8, "unit": "nM"}, {"measurement": "GI50", "setting": "[12]", "value": 216, "unit": "nM"}, {"measurement": "CC50", "setting": "[12]", "value": 1240, "unit": "nM"}, {"measurement": "IC (TGI)", "setting": "[12]", "value": 517, "unit": "nM"}, {"measurement": "GI50", "setting": "[13]", "value": 139, "unit": "nM"}, {"measurement": "CC50", "setting": "[13]", "value": 581, "unit": "nM"}, {"measurement": "IC (TGI)", "setting": "[13]", "value": 285, "unit": "nM"}, {"measurement": "GI50", "setting": "[14]", "value": 297, "unit": "nM"}, {"measurement": "CC50", "setting": "[14]", "value": 12400, "unit": "nM"}, {"measurement": "IC (TGI)", "setting": "[14]", "value": 1540, "unit": "nM"}]}
